Measurements from patent publication US20050232975A1, “Composition and method to improve quality and yield of meat products” (priority 2002, published 2005).

Tests used:
Format in all cases: in vivo
[1] = Vitamin C in the blood after oral administration to cattle
Description: Applicants have learned that oral administration of Vitamin C to cattle results in measurable Vitamin C in the blood in about 45 minutes. These blood levels reach a maximum level between about 45 minutes and about 2 hours. In certain embodiments, Applicants orally administer their composition to a meat-producing animal about 45 minutes prior to harvest. In certain embodiments, Applicants orally administer their composition to a meat-producing animal about 2 hours prior to harvest. In certain embodiments, Applicants orally administer their composition to a meat-producing animal about 6 hours prior to harvest. In certain embodiments, Applicants orally administer their composition to a meat-producing animal about 18 hours prior to harvest. In certain embodiments, Applicants orally administer their composition to a meat-producing animal about 24 hours prior to harvest. In certain embodiments, Applicants orally administer their composition to a meat-producing animal about 48 hours prior to harvest

beef cattle [2] = assay: Example II: pH of meat cuts post-harvest after one-time oral administration to beef cattle pre-harvest; conditions: about 6 hours prior to harvest
Description: To study the dose/response efficacy of a one-time administration of Vitamin C to beef cattle on the pH of various cuts of meat prepared post-harvest, Applicants' studied four (4) treatments. Those treatments were is administered orally to 4 head of cattle about 6 hours prior to harvest. In a first control treatment, no Vitamin C was administered. In a second treatment, the animal's feed included about 50 grams of a phosphorylated Vitamin C sold in commerce by Roche Vitamins, Inc. under the name Rovimix® Stay-C®. In a third treatment, the animal's feed included about 100 grams of Rovimix® Stay-C®. In a fourth treatment, the animal's feed included about 150 grams of Rovimix® Stay-C®.
In treatments 2, 3, and 4, the phosphorylated Vitamin C was disposed in about 200 grams of grapefruit pulp. That Vitamin C/grapefruit pulp was orally administered to each of the cattle as a one-time bolus. In treatment 1, the control cattle were administered their normal diet.

beef cattle [3] = assay: Example I: water retention (drip loss, moisture, free/bound/immobile water) of meat cuts after one-time oral administration to beef cattle pre-harvest; set-up: Total moisture: unit not given here; conditions: about 6 hours prior to harvest
Description: To study the dose/response efficacy of a one-time administration of Vitamin C to beef cattle on the water retention of various cuts of meat prepared post-harvest, Applicants' studied four (4) treatments. Those treatments were is administered orally to 4 head of cattle about 6 hours prior to harvest. In a first control treatment, no Vitamin C was administered. In a second treatment, the animal's feed included about 50 grams of a phosphorylated Vitamin C sold in commerce by Roche Vitamins, Inc. under the name Rovimix® Stay-C®. In a third treatment, the animal's feed included about 100 grams of Rovimix® Stay-C®. In a fourth treatment, the animal's feed included about 150 grams of Rovimix® Stay-C®. Table I summarizes the results of this Example I. In treatments 2, 3, and 4, the phosphorylated Vitamin C was disposed in about 200 grams of grapefruit pulp. That Vitamin C/grapefruit pulp was orally administered to each of the cattle as a one-time drench. In treatment 1, the control cattle were administered the normal diet. By “LD,” Applicants mean meat products comprising the Longissimus dorsi muscle. These cuts are sold in commerce as, for example, strip loins. By “SM,” Applicants mean meat products comprising the Semimembranosus/adductor muscle. These cuts are sold in commerce as, for example, top round or inside round. By “TRI,” Applicants mean products comprising the triceps brachii muscle sometimes called the shoulder clod. These cuts are sold in commerce as, for example, beef roasts.

[4] = 0 min after harvest, 50 grams oral
[5] = 0 min after harvest, 100 grams oral
[6] = 0 min after harvest, 150 grams oral
[7] = 30 min after harvest, 50 grams oral
[8] = 30 min after harvest, 100 grams oral
[9] = 30 min after harvest, 150 grams oral
[10] = 60 min after harvest, 50 grams oral
[11] = 60 min after harvest, 100 grams oral
[12] = 60 min after harvest, 150 grams oral
[13] = 90 min after harvest, 50 grams oral
[14] = 90 min after harvest, 100 grams oral
[15] = 90 min after harvest, 150 grams oral
[16] = 120 min after harvest, 50 grams oral
[17] = 120 min after harvest, 100 grams oral
[18] = 120 min after harvest, 150 grams oral
[19] = 150 min after harvest, 50 grams oral
[20] = 150 min after harvest, 100 grams oral
[21] = 150 min after harvest, 150 grams oral
[22] = 180 min after harvest, 50 grams oral
[23] = 180 min after harvest, 100 grams oral
[24] = 180 min after harvest, 150 grams oral

O=C1O[C@H]([C@@H](O)CO)C(O)=C1O [Vitamin C, L-ascorbic acid]
time to measurable Vitamin C in the blood ([1]; bovine, in vivo, po): about 45 minutes | time at which blood levels reach a maximum level ([1]; oral administration to cattle): about 45 minutes and about 2 hours | Measured pH Of Beef Roast (beef cattle [2]; [4]): 6.82 | Measured pH Of Strip Loin (beef cattle [2]; [4]): 6.78 | Measured pH Of Top Round Cuts (beef cattle [2]; [4]): 6.70 | Measured pH Of Beef Roast (beef cattle [2]; [5]): 6.73 | Measured pH Of Strip Loin (beef cattle [2]; [5]): 6.78 | Measured pH Of Top Round Cuts (beef cattle [2]; [5]): 6.70 | Measured pH Of Beef Roast (beef cattle [2]; [6]): 6.77 | Measured pH Of Strip Loin (beef cattle [2]; [6]): 6.76 | Measured pH Of Top Round Cuts (beef cattle [2]; [6]): 6.64 | Measured pH Of Beef Roast (beef cattle [2]; [7]): 6.41 | Measured pH Of Strip Loin (beef cattle [2]; [7]): 6.45 | Measured pH Of Top Round Cuts (beef cattle [2]; [7]): 6.46 | Measured pH Of Beef Roast (beef cattle [2]; [8]): 6.43 | Measured pH Of Strip Loin (beef cattle [2]; [8]): 6.45 | Measured pH Of Top Round Cuts (beef cattle [2]; [8]): 6.44 | Measured pH Of Beef Roast (beef cattle [2]; [9]): 6.44 | Measured pH Of Strip Loin (beef cattle [2]; [9]): 6.36 | Measured pH Of Top Round Cuts (beef cattle [2]; [9]): 6.47 | Measured pH Of Beef Roast (beef cattle [2]; [10]): 6.19 | Measured pH Of Strip Loin (beef cattle [2]; [10]): 6.22 | Measured pH Of Top Round Cuts (beef cattle [2]; [10]): 6.12 | Measured pH Of Beef Roast (beef cattle [2]; [11]): 6.19 | Measured pH Of Strip Loin (beef cattle [2]; [11]): 6.25 | Measured pH Of Top Round Cuts (beef cattle [2]; [11]): 6.36 | Measured pH Of Beef Roast (beef cattle [2]; [12]): 6.26 | Measured pH Of Strip Loin (beef cattle [2]; [12]): 6.22 | Measured pH Of Top Round Cuts (beef cattle [2]; [12]): 6.20 | Measured pH Of Beef Roast (beef cattle [2]; [13]): 6.11 | Measured pH Of Strip Loin (beef cattle [2]; [13]): 6.00 | Measured pH Of Top Round Cuts (beef cattle [2]; [13]): 5.84 | Measured pH Of Beef Roast (beef cattle [2]; [14]): 6.05 | Measured pH Of Strip Loin (beef cattle [2]; [14]): 6.02 | Measured pH Of Top Round Cuts (beef cattle [2]; [14]): 6.05 | Measured pH Of Beef Roast (beef cattle [2]; [15]): 6.06 | Measured pH Of Strip Loin (beef cattle [2]; [15]): 6.07 | Measured pH Of Top Round Cuts (beef cattle [2]; [15]): 5.91 | Measured pH Of Beef Roast (beef cattle [2]; [16]): 6.10 | Measured pH Of Strip Loin (beef cattle [2]; [16]): 5.83 | Measured pH Of Top Round Cuts (beef cattle [2]; [16]): 5.75 | Measured pH Of Beef Roast (beef cattle [2]; [17]): 5.96 | Measured pH Of Strip Loin (beef cattle [2]; [17]): 5.78 | Measured pH Of Top Round Cuts (beef cattle [2]; [17]): 5.81 | Measured pH Of Beef Roast (beef cattle [2]; [18]): 5.91 | Measured pH Of Strip Loin (beef cattle [2]; [18]): 5.88 | Measured pH Of Top Round Cuts (beef cattle [2]; [18]): 5.78 | Measured pH Of Beef Roast (beef cattle [2]; [19]): 6.01 | Measured pH Of Strip Loin (beef cattle [2]; [19]): 5.75 | Measured pH Of Top Round Cuts (beef cattle [2]; [19]): 5.60 | Measured pH Of Beef Roast (beef cattle [2]; [20]): 5.89 | Measured pH Of Strip Loin (beef cattle [2]; [20]): 5.76 | Measured pH Of Top Round Cuts (beef cattle [2]; [20]): 5.59 | Measured pH Of Beef Roast (beef cattle [2]; [21]): 5.80 | Measured pH Of Strip Loin (beef cattle [2]; [21]): 5.66 | Measured pH Of Top Round Cuts (beef cattle [2]; [21]): 5.67 | Measured pH Of Beef Roast (beef cattle [2]; [22]): 5.87 | Measured pH Of Strip Loin (beef cattle [2]; [22]): 5.67 | Measured pH Of Top Round Cuts (beef cattle [2]; [22]): 5.53 | Measured pH Of Beef Roast (beef cattle [2]; [23]): 5.83 | Measured pH Of Strip Loin (beef cattle [2]; [23]): 5.59 | Measured pH Of Top Round Cuts (beef cattle [2]; [23]): 5.55 | Measured pH Of Beef Roast (beef cattle [2]; [24]): 5.79 | Measured pH Of Strip Loin (beef cattle [2]; [24]): 5.50 | Measured pH Of Top Round Cuts (beef cattle [2]; [24]): 5.57 | Percent moisture (beef cattle [3]; LD cut, 50 grams oral): 0.7021 | Total moisture (beef cattle [3]; LD cut, 50 grams oral): 384.78 | Total moisture (beef cattle [3]; LD cut, 100 grams oral): 366.33 | Bound water (beef cattle [3]; LD cut, 150 grams oral): 78.6805% | Free water (beef cattle [3]; LD cut, 150 grams oral): 21.3195% | Immobile water (beef cattle [3]; LD cut, 150 grams oral): 57.3609% | Total moisture (beef cattle [3]; LD cut, 150 grams oral): 354.2 | Bound water (beef cattle [3]; SM cut, 50 grams oral): 80.5196% | Free water (beef cattle [3]; SM cut, 50 grams oral): 19.4804% | Immobile water (beef cattle [3]; SM cut, 50 grams oral): 61.0392% | Percent moisture (beef cattle [3]; SM cut, 50 grams oral): 0.6522 | Total moisture (beef cattle [3]; SM cut, 50 grams oral): 353.36 | Bound water (beef cattle [3]; SM cut, 100 grams oral): 83.959% | Free water (beef cattle [3]; SM cut, 100 grams oral): 16.041% | Immobile water (beef cattle [3]; SM cut, 100 grams oral): 67.918% | Total moisture (beef cattle [3]; SM cut, 100 grams oral): 365.7 | Bound water (beef cattle [3]; SM cut, 150 grams oral): 75.6853% | Free water (beef cattle [3]; SM cut, 150 grams oral): 24.3147% | Immobile water (beef cattle [3]; SM cut, 150 grams oral): 51.3706% | Total moisture (beef cattle [3]; SM cut, 150 grams oral): 371.99 | Bound water (beef cattle [3]; TRI cut, 50 grams oral): 77.269% | Free water (beef cattle [3]; TRI cut, 50 grams oral): 22.731% | Immobile water (beef cattle [3]; TRI cut, 50 grams oral): 54.5381% | Percent moisture (beef cattle [3]; TRI cut, 50 grams oral): 0.7019 | Total moisture (beef cattle [3]; TRI cut, 50 grams oral): 376.45 | Total moisture (beef cattle [3]; TRI cut, 100 grams oral): 361.8 | Bound water (beef cattle [3]; TRI cut, 150 grams oral): 81.0096% | Free water (beef cattle [3]; TRI cut, 150 grams oral): 18.9904% | Immobile water (beef cattle [3]; TRI cut, 150 grams oral): 62.0192% | Total moisture (beef cattle [3]; TRI cut, 150 grams oral): 399.11
